The values below come from ChEMBL document CHEMBL1201862, “PubChem BioAssay data set” (2004).

Assay [1] deals with Polyadenylate-binding protein 1 (Homo sapiens, UniProt P11940). As to the kind of experiment: PABP inhibition in translation initiation, SAR follow-up (AID 435018). It counts as functional.
Assay [2] has as its target Eukaryotic translation initiation factor 4H (Homo sapiens, UniProt Q15056). As to the kind of experiment: eIF4H inhibition in translation initiation, SAR follow-up (AID 435011). It is filed as functional.
Another assay can be described thus: cells. It is filed as functional.
Assay [3] can be described thus: THP-1 cell cytotoxicity, dose response, cytotoxicity control for non-replicating M. tuberculosis project (AID 489025). It is filed as functional.
Assay [4] is described as follows: control 3'UTR Renilla luciferase suppression, dose response, counter-screen for Shn3 inhibitor project, cell-based, Clone20-Shn3RL, cherry-picked (AID 624133). It counts as functional. On the technique in general: Counterscreens check selectivity or assay interference.
A short description of assay [5]: Shn3 3'UTR reporter inhibitors, dose response, cell-based, Clone20 osteoblasts, firefly luciferase, cherry-picked (AID 624132).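 Further: firefly luciferase luminescence from reporter carrying the Shn3 3'UTR in osteoblasts.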 It is filed as functional.
The target in a further assay is Paired box protein Pax-8 (Homo sapiens, UniProt Q06710). As to the kind of experiment: inhibitors of PAX8-driven TPO luciferase reporter, dose response, RMG-I cells, cherry-pick (AID 687027).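 Further: luciferase reporter driven by Pax8 target thyroperoxidase promoter measured by SteadyGlo luminescence.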 It is filed as functional, cell-based. (Reporter assays use an easily measured gene product as a stand-in for the process of interest.)
Chain of Paired box protein Pax-8 (Q06710 whole entry): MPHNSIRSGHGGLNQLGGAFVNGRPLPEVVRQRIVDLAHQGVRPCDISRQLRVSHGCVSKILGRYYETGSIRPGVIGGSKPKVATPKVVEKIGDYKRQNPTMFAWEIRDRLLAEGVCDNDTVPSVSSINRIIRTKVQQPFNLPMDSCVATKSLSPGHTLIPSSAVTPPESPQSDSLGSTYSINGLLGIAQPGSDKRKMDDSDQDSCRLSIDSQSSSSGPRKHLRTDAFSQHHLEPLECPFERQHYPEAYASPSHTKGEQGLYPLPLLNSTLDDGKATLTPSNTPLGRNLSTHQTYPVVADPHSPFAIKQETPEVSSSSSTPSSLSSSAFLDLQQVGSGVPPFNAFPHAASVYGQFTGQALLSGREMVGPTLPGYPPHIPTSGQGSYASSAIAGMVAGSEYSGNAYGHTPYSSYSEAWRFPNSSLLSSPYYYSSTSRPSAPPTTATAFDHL
Assay [6] in a line: HepG2 cell cytotoxicity, dose response, cytotoxicity control for non-replicating M. tuberculosis project (AID 489018). It is filed as functional. To be noted: Mycobacterium tuberculosis.
Assay [7] is described as follows: Vero E6 cell cytotoxicity, dose response, cytotoxicity control for non-replicating M. tuberculosis project, secondary assay (AID 492998). It is filed as functional, VeroE6. To be noted: Vero C1008.
The target of another assay is Nonstructural protein 1 (Influenza A virus, UniProt Q194T2). It is filed as functional, Influenza A virus (A/California/07/2009(H1N1)).
Chain of Nonstructural protein 1 (Q194T2 whole entry): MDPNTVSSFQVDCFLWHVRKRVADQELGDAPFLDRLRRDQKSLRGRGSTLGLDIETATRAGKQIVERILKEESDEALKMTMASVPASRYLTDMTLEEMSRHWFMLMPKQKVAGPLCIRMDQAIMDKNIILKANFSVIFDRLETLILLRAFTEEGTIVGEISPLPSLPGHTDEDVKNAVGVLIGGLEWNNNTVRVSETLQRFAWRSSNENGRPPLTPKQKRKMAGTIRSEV
Assay [8] in a line: HepG2 cell cytotoxicity, dose response, cytotoxicity control for Shn3 inhibitor project, CellTiter-Glo, cherry-picked (AID 624134). It counts as functional, cell-based. Background: ATP-based viability assays read luminescence as a measure of living cells.
Assay [9] deals with T1, Dual specificity protein phosphatase 6 (Rattus norvegicus, UniProt Q64346).
T1 sequence (Q64346 whole entry): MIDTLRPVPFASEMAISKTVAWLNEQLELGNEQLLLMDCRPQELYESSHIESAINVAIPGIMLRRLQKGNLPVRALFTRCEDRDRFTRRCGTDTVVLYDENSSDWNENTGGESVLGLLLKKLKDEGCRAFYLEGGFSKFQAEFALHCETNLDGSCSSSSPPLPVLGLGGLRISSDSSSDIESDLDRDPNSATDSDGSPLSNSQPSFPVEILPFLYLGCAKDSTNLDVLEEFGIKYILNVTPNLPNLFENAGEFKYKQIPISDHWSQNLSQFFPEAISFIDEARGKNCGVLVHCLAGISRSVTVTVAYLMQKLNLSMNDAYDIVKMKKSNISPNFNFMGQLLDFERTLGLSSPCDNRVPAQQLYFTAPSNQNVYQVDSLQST
It is filed as functional.

Assay [10] has as its target T2, Dual specificity protein phosphatase 3 (Homo sapiens, UniProt P51452). As to the kind of experiment: SAR VHR1 Fluorescent Assay for In Vitro dose response studies. [Related pubchem assays (depositor defined):AID1654, AID1661, AID1878, AID1992, AID2004, AID2070, AID2085]. It is filed as functional.
The target of assay [11] is Glyceraldehyde-3-phosphate dehydrogenase (Homo sapiens, UniProt P04406).
Chain of Glyceraldehyde-3-phosphate dehydrogenase (P04406 whole entry): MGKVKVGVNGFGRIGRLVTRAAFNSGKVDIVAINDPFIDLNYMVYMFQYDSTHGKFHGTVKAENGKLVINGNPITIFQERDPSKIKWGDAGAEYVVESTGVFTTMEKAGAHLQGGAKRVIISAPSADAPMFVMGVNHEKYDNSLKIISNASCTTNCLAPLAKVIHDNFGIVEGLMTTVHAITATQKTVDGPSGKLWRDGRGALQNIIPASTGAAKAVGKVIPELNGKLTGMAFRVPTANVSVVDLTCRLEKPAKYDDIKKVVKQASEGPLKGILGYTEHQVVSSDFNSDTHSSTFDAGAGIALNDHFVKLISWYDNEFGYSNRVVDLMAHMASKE
The target of assay [12] is T3, Tyrosine-protein phosphatase non-receptor type 7 (Homo sapiens, UniProt P35236).
T3 sequence (P35236 whole entry): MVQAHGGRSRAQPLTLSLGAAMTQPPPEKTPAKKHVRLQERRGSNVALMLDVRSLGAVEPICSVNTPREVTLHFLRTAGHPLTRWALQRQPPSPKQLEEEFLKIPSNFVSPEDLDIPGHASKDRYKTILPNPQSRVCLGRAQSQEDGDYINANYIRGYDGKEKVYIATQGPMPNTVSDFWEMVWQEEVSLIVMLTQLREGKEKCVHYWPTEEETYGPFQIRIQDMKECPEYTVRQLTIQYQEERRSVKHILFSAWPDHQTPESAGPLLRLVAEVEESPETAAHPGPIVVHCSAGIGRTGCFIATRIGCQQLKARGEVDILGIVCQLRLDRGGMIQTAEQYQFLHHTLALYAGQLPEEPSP
Briefly: redox-dependent HePTP inhibition, mechanism study, biochemical, fluorescence (AID 2068). It counts as functional.

In assay [13] the target is T2, Dual specificity protein phosphatase 3. As to the kind of experiment: MOA VHR1 Fluorescent secondary assay for identification of redox-state modulating compounds. [Related pubchem assays (depositor defined):AID1654, AID1661, AID1878, AID1957].
Assay [14] concerns the target T3, Tyrosine-protein phosphatase non-receptor type 7. It is filed as functional.
The target of assay [15] is T1, Dual specificity protein phosphatase 6.
The nature of assay [16]: Luminescence Cell-Based Dose Confirmation HTS to Identify Inhibitors of Platelet Dense Granule Release. [Related pubchem assays: 1663 (Primary HTS), 1678 (Summary of Project)]. It is filed as functional.
Another assay addresses ORF 73 (Human herpesvirus 8, UniProt O40947). Briefly: inhibitors of C-LANA binding to LBS DNA, dose response, biochemical, fluorescence polarization, cherry-picked samples (AID 504725).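 Further: fluorescence polarization of a labeled DNA duplex reporting LANA DNA binding; potency is for inhibitors that block LANA binding to the DNA.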 Further details: species or system Human gammaherpesvirus 8.
Assay [17] deals with Luciferin 4-monooxygenase (Photinus pyralis, UniProt P08659). As to the kind of experiment: firefly luciferase enzyme inhibitors, dose response, biochemical, luminescence (AID 1891).
Chain of Luciferin 4-monooxygenase (P08659 whole entry): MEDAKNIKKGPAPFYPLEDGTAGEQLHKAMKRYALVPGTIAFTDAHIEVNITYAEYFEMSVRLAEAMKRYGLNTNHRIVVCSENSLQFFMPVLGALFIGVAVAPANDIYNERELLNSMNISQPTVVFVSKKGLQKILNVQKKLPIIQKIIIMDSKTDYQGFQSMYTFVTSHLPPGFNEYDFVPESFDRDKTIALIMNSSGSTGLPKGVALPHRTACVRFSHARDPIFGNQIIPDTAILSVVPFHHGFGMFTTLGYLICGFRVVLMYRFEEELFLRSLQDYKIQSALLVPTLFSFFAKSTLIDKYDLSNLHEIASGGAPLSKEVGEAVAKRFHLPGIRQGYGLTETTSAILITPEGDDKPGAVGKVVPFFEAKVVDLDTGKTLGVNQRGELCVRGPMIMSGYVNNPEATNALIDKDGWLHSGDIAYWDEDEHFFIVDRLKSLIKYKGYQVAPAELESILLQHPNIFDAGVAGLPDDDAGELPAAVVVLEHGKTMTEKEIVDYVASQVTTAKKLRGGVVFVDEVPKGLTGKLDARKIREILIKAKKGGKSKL
Assay [18] addresses Potassium voltage-gated channel subfamily KQT member 2 (Rattus norvegicus, UniProt O88943). Briefly: retigabine-insensitive KCNQ2 potentiators, concentration-response, dose response, cell-based, retigabine-insensitive compounds (AID 2654). It is filed as functional.
A further assay deals with T4, Coagulation factor XII (Homo sapiens, UniProt P00748).
T4 sequence (P00748 whole entry): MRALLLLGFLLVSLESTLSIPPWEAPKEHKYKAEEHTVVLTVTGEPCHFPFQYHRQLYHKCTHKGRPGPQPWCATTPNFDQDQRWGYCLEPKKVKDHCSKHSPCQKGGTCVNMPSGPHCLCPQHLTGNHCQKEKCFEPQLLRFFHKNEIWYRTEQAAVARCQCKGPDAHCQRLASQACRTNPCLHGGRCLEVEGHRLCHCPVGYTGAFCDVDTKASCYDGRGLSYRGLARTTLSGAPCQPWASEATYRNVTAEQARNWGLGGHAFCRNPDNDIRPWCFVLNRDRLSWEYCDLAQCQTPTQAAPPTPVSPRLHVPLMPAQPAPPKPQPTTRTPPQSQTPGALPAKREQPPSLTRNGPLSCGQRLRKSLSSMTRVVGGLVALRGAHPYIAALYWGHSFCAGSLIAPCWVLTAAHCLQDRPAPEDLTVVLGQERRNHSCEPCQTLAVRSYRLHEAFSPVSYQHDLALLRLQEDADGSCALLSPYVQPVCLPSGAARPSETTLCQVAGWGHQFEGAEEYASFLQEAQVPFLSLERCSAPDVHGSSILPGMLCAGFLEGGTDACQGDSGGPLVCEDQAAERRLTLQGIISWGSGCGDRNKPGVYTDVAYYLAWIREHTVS
Briefly: FXIIa inhibitor potency, concentration-response, biochemical (AID 716). It counts as functional.

In another assay the test system is H4. Briefly: Luminescence Cell-Based Dose Response HTS to Identify Activators of 5'UTR Stem-Loop Driven Prion Protein mRNA Translation in H4 Neuroglioblastoma Cells. [Related pubchem assays: 1829 (Project Summary), 1814 (Primary HTS)]. To be noted: Homo sapiens. It is filed as functional.
Assay [19] concerns the target T5, Tyrosine-protein phosphatase non-receptor type 22 (Homo sapiens, UniProt Q9Y2R2).
T5 sequence (Q9Y2R2 whole entry): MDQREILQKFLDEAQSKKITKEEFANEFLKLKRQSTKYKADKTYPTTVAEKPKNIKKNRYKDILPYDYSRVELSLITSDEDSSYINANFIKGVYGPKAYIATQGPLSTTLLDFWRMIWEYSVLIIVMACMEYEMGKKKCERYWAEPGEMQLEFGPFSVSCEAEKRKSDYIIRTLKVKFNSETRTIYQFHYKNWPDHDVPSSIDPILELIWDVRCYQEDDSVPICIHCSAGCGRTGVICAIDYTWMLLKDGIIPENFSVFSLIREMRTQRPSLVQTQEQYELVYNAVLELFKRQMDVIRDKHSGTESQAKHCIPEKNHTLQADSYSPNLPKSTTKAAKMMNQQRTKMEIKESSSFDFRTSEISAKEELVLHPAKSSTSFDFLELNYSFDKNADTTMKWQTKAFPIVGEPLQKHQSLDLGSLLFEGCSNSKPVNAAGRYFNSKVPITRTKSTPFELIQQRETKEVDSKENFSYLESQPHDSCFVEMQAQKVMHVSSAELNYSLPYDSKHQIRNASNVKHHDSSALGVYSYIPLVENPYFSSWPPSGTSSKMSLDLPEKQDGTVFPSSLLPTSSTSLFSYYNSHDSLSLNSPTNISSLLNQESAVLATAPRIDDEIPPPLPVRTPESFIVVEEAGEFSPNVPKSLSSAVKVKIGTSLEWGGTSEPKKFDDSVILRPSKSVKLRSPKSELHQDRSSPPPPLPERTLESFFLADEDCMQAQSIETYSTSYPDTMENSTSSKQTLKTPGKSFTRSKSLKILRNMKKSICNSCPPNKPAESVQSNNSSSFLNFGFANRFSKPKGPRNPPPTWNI
As to the kind of experiment: LYP (PTPN22) phosphatase inhibitor potency, SAR follow-up, biochemical, pCAP fluorogenic substrate, fluorescence, set 3 (AID 449727). It counts as functional.

For assay [20], the target named is Tyrosine-protein phosphatase non-receptor type 12 (Homo sapiens, UniProt Q05209). As to the kind of experiment: SAR Selectivity Analysis of small molecule inhibitors of PEST using pCAP in a fluorescence assay. [Related pubchem assays (depositor defined):AID1779, AID1784, AID2135]. It counts as functional.
Assay [21] concerns the target T3, Tyrosine-protein phosphatase non-receptor type 7. Briefly: HePTP (PTPN7) phosphatase inhibitor potency, SAR follow-up, biochemical, set 2 (AID 449736). It counts as functional.
Assay [22] deals with T5, Tyrosine-protein phosphatase non-receptor type 22. Briefly: SAR LYP1 Fluorescent Assay using OMFP substrate for In Vitro dose response studies - Set 3. [Related pubchem assays (depositor defined):AID1779, AID1784, AID2140, AID2686]. It counts as functional.
Assay [23] in a line: viability loss in BJeLR (HRASV12) cells, primary screen, Ras selective lethality project, cell-based, Alamar Blue, dry powder (AID 493045). It counts as functional.
The nature of assay [24]: viability loss in HRASV12 DRD fibroblasts, dose response, cell-based, DRD BJ fibroblasts, dry powder (AID 493049). It counts as functional.
Assay [25] is described as follows: cytotoxicity in BJeH fibroblasts, dose response, counter-screen for Ras selective lethality project, BJeH cells, dry powder (AID 493054). It is filed as functional, cell-based.
A short description of assay [26]: cytotoxicity in BJeHLT fibroblasts, dose response, counter-screen for Ras selective lethality project, BJeHLT cells, dry powder (AID 493052). It is filed as functional, cell-based. To be noted: Homo sapiens.

Molecules are shown by their SMILES. Active and inactive are the calls of the source.

T2 sequence (P51452 whole entry): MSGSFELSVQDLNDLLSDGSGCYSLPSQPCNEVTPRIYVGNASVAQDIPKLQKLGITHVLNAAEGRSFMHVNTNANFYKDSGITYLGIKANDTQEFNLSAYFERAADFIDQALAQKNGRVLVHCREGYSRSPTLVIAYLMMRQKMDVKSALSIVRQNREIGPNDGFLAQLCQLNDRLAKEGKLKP
Chain of ORF 73 (O40947 whole entry): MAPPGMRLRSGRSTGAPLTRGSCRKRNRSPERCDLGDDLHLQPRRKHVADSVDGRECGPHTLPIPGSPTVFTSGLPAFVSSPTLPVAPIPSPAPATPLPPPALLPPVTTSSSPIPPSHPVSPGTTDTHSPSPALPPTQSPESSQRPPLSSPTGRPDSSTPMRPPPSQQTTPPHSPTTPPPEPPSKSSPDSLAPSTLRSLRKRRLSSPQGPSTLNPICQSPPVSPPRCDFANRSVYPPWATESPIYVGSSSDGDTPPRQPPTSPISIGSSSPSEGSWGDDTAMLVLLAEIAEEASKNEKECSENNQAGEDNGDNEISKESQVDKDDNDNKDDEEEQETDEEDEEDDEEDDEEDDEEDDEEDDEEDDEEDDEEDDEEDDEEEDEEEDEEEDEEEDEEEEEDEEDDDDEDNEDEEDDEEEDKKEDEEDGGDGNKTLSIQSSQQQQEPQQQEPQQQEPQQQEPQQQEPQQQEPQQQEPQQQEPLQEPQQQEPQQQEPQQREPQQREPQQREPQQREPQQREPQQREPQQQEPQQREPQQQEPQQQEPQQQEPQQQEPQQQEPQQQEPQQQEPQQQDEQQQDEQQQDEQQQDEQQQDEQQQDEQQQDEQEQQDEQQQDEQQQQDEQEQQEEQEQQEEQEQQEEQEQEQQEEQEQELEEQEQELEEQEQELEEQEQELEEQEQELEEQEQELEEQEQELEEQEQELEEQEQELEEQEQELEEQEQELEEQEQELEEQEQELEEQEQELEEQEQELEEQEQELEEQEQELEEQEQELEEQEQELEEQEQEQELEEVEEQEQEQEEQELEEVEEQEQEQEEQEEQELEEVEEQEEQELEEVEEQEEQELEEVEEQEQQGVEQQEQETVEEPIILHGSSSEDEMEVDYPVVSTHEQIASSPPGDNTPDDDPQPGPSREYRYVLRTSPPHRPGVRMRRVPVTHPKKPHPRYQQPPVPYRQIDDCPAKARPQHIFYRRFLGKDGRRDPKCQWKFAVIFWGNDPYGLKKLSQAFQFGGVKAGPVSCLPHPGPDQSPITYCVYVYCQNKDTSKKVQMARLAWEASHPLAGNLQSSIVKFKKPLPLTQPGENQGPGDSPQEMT
Chain of Polyadenylate-binding protein 1 (P11940 whole entry): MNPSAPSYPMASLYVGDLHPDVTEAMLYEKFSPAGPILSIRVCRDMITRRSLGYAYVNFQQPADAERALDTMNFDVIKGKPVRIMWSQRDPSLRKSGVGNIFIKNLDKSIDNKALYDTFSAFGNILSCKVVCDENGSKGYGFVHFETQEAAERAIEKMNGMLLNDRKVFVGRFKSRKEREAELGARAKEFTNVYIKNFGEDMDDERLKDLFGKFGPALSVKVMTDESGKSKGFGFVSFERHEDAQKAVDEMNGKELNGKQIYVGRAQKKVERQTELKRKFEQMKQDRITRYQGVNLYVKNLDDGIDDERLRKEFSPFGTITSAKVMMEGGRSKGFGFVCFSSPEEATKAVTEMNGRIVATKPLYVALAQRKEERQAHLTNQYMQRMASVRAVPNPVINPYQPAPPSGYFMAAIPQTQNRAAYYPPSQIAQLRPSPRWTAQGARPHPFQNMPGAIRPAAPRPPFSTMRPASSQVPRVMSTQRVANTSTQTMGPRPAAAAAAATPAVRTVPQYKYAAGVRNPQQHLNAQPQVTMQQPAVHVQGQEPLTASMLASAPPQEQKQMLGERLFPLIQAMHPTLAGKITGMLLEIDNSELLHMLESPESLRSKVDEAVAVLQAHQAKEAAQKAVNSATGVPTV
Chain of Potassium voltage-gated channel subfamily KQT member 2 (O88943 whole entry): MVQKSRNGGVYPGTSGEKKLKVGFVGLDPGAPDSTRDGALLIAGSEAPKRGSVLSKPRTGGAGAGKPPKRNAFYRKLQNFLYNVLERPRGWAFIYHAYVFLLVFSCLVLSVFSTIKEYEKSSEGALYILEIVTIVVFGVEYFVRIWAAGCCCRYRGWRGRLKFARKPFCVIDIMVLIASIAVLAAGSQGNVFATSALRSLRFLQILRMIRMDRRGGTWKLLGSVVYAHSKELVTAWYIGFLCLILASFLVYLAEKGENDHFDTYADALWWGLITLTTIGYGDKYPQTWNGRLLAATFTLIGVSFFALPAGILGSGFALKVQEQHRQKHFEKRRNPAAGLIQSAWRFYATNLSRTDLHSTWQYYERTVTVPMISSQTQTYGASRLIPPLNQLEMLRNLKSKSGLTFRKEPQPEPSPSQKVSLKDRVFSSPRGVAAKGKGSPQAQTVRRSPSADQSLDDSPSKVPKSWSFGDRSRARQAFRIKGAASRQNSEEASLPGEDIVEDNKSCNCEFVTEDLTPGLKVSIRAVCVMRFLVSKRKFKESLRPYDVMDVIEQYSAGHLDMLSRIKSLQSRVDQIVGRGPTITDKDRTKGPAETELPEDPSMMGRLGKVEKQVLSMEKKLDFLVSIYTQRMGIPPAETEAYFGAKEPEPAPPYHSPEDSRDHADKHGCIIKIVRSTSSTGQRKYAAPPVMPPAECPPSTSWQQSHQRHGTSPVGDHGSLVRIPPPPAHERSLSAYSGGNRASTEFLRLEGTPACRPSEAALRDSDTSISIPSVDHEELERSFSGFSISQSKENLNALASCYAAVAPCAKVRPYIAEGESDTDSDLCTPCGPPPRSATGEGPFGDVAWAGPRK

Broadly, the IC50 is the concentration that inhibits the measured activity by half. Consider `Cn1c(CC(=O)Nc2ccc(F)cc2)c(Sc2ccccc2)c2ccccc21`, for which the IC50 in assay [1] was > 100 µM (inactive); in [2] it was 44.5 µM (active).

By CC50 is commonly meant the concentration that lowers cell viability or growth by half. A word on the AC50: it is the midpoint of the concentration-response curve, whichever way the signal moves. For the molecule `Oc1c(Cl)cc(CN2CCOCC2)c2cccnc12`, the IC50 is 13.7 µM (active) in the assay “cells” and 5.97 µM (active) at Nonstructural protein 1. Also, the CC50 was 5.75 µM (active) in assay [3], 10.3 µM (active) in [6] and 7.79 µM (active) in [7]. In addition, the AC50 is 9.44 µM (active) in assay [4], 2.43 µM (active) in assay [5], 4.43 µM (active) on Paired box protein Pax-8 and 31.9 µM (active) in [8].

Regarding `O=c1/c(=C/c2ccccc2Cl)sc2nc3cc(Br)cnc3n12`, the IC50 in [9] was > 100 µM (inactive); in assay [10], > 100 µM (inactive); in assay [11], > 100 µM (not active); in assay [12], 0.18 µM (active); in assay [13], 0.181 µM (active); in assay [14], > 100 µM (not active). For the same molecule, the IC50 in assay [15] is > 100 µM (inactive).

Broadly, the EC50 is the concentration needed to bring the measured effect to its halfway point. Take `COc1ccc(N(C(=O)c2ccc(Cl)cc2)C2=CC3CCC(C2)N3C)cc1` (stereo not drawn): the EC50 in assay [16] and in assay [17] was > 112 µM (not active) throughout. In addition, the AC50 at ORF 73 is 76.3 µM (active).

As to `O=C(NCc1ccc(Cl)cc1Cl)Nc1ccccc1`, the 50% effective concentration (EC50) in [18] was 2.22 µM (active).

On to `COc1ccc(Cn2c(C3CC3)nc3ccc(NC(=O)C4CC4)cc3c2=O)cc1`, for which the IC50 on Coagulation factor XII is > 50 µM (inactive). Moreover, in the assay with H4, the EC50 is 0.679 µM (active).

Consider `O=C(O)CN1C(=O)/C(=C\Nc2ccccc2)SC1=S`, for which the IC50 in assay [19] is > 100 µM (inactive); in assay [20], 66.4 µM (active); in assay [21], > 100 µM (inactive); in assay [11], > 100 µM (not active); in [22] it was > 100 µM (inactive).

`COc1ccc(N(C(=O)CCl)C(C(=O)NCCc2ccccc2)c2ccc(Cl)s2)cc1Cl` (stereo not drawn): the AC50 in [23] was 0.061 µM (active); in [24], 0.062 µM (active); in assay [25] it was 0.214 µM (active); in assay [26] it was 0.133 µM (active).
